According to US9718800B2, “Chromenone derivatives” (AstraZeneca AB, priority 2009, dated 2017):
pIC50: −log10 of the molar value.

Target: PI3Kβ (Homo sapiens (Human), UniProt P42338)
Test: In vitro enzyme inhibition assay (Kinase Glo based enzyme activity assay)
Format: biochemical
Conditions: Test (a), Table A
Protocol: (a) In Vitro Enzyme Inhibition Assay
The inhibition of PI3Kβ, PI3Kα, PI3Kγ and PI3Kδ was evaluated in a Kinase Glo based enzyme activity assay using human recombinant enzymes. The assay measures depletion of ATP after incubation with enzyme, PIP2 and ATP plus compound. ATP at the end of the reaction is detected by addition of Kinase Glo reagent, in this the Ultra Glo™ luciferase (Promega) uses the ATP as a substrate to catalyze the mono-oxygenation of luciferin and the generation of light. A direct relationship exists between the luminescence measured with the Kinase-Glo Plus Reagent and the amount of ATP remaining in a completed kinase reaction and luminescence is inversely related to kinase activity.
Compounds in 100% DMSO were added to assay plates by acoustic dispensing. PI3Kβ was added in a Tris buffer (50 mM Tris pH7.4, 0.05% CHAPS, 2.1 mM DTT, and 10 mM MgCl2) and allowed to preincubate with compound for 20 minutes prior to addition of substrate solution containing PIP2 and ATP. The enzyme reaction was stopped after 80 minutes by the addition of Kinase Glo detection solution. Plates were left for 30 minutes at room temperature then read on a Pherastar Instrument (Luminescence ATP 384 program) setting gain on max well. […]
IC50 values were calculated using a log curve fitting to a non-linear regression package, fitting raw data to inhibitor concentration.

Sequence of PI3Kβ (P42338 whole entry): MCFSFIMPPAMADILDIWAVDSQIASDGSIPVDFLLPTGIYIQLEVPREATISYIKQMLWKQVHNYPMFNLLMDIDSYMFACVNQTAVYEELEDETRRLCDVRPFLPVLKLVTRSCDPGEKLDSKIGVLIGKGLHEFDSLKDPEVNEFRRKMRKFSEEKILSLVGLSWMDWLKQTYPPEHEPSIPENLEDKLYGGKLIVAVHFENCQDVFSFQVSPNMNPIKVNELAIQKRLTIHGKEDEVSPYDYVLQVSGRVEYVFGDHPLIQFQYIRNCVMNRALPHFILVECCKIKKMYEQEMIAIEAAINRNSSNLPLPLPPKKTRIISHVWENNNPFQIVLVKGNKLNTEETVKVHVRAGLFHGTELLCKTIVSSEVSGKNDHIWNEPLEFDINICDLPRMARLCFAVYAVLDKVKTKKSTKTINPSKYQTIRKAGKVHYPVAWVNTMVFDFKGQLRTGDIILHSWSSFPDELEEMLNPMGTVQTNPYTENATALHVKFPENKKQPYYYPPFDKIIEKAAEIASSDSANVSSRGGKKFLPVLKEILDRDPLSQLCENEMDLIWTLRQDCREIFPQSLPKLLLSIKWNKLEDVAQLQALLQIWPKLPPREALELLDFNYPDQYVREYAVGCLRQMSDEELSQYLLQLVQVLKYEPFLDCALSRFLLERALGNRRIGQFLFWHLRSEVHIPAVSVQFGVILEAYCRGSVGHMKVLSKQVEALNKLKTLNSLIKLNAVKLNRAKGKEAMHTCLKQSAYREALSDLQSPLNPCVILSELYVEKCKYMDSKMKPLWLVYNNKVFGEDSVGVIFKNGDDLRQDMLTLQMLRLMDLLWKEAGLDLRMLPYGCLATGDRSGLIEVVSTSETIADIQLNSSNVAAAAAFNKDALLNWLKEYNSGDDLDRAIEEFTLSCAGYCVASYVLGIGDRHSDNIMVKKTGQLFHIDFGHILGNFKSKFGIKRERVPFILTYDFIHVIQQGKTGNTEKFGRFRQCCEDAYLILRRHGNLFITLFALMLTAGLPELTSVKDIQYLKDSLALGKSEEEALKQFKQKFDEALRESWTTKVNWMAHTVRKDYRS
Sequence of PI3Kβ (P27986 whole entry partner): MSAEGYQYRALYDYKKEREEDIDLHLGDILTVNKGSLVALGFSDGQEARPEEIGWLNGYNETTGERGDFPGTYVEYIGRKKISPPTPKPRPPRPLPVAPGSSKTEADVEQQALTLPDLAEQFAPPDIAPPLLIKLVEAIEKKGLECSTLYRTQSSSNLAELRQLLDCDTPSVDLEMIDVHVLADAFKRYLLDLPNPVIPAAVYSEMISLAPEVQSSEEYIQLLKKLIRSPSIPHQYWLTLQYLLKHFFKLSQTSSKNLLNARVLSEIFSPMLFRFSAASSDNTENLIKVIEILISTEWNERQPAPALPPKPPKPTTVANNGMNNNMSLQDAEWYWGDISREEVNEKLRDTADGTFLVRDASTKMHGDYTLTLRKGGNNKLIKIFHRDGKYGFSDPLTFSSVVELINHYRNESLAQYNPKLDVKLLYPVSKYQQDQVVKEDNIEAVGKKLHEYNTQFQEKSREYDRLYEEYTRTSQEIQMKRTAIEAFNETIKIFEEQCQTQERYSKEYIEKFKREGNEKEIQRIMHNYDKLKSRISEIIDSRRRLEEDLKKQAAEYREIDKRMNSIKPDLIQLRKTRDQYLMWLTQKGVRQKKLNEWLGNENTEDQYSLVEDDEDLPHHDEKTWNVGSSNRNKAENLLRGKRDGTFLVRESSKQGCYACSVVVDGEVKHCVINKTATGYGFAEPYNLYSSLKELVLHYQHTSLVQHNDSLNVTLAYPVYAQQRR

Compound: CC(c1cc(C(=O)NCCN(C)C)cc2c(=O)cc(N3CCOCC3)oc12)N(C)c1ccc(F)c(F)c1 (stereo not shown) [Example 3.01, 8-(1-((3,4-difluorophenyl)(methyl)amino)ethyl)-N-(2-(dimethylamino)ethyl)-2-morpholino-4-oxo-4H-chromene-6-carboxamide]
- pIC50: 8.22
